Laboratory results: paper PMC11191877, “Discovery of new Schiff bases of the disalicylic acid scaffold as DNA gyrase and topoisomerase IV inhibitors endowed with antibacterial properties” (Frontiers in Chemistry, 2024)
Converted amounts (≈) assume the structure as drawn. Each block holds one compound with its values, some of them ahead of it.

What was measured:
Bacillus subtilis [1] = assay: Modified Kirby-Bauer disc diffusion; type: cell-based; conditions: Bacillus subtilis (G+)
Description: (§1) The antimicrobial activity of compounds 5a-k was assessed using a modified Kirby-Bauer disc diffusion method ([Alkhaldi et al., 2019]; [Al-Wahaibi et al., 2021b]; [Manso et al., 2021]; [Ecevit et al., 2022]). […] Ciprofloxacin was used as a reference medication. […] Compounds 5f-k had promising antibacterial action against Gram-positive and Gram-negative bacteria, ranging from 75% to 115% of typical ciprofloxacin levels. […]
(§2) incubated at 35-37 °C for 24-48 hours and yeast as Candida albicans (ATCC 7102) incubated at 30 °C for 24-48 hours and, then the diameters of the inhibition zones were measured in millimeters. Standard discs of ciprofloxacin (Antibacterial agent), Fluconazole (Antifungal agent) served as positive controls for antimicrobial activity but filter discs impregnated with 10 µl of solvent (distilled water, chloroform, DMSO) were used as a negative control. Blank paper disks (Schleicher & Schuell, Spain) with a diameter of 8.0 mm were impregnated 10µ of tested concentration of the stock solutions. When a filter paper disc impregnated with a tested chemical is placed on agar the chemical will diffuse from the disc into the agar. This diffusion will place the chemical in the agar only around the disc. The solubility of the chemical and its molecular size will determine the size of the area of chemical infiltration around the disc. If an organism is placed on the agar it will not grow in the area around the disc if it is susceptible to the chemical. This area of no growth around the disc is known as a “Zone of inhibition” or" Clear zone". For the disc diffusion, the zone diameters were measured with slipping calipers of the National Committee for Clinical Laboratory […]
(§3) Agar-based methods such as E-test and disk diffusion can be good alternatives because they are simpler and faster than broth-based methods. […]

Escherichia Coli [2] = assay: Modified Kirby-Bauer disc diffusion; type: cell-based; conditions: Escherichia Coli (G−)
Description: as §1, §2, §3

Pseudomonas aeruginosa [3] = assay: Modified Kirby-Bauer disc diffusion; type: cell-based; conditions: Pseudomonas aeruginosa (G−)
Description: as §1, §2, §3

Staph. aureus = assay: Modified Kirby-Bauer disc diffusion; type: cell-based, Staphylococcus aureus; conditions: for Inhibition zone diameter: Staph. aureus (G+)
Description: as §1, §2, §3

Aspergillus flavus = assay: Modified Kirby-Bauer disc diffusion (antifungal); type: cell-based; conditions: Aspergillus flavus (fungi)
Description: (§4) The antimicrobial activity of compounds 5a-k was assessed using a modified Kirby-Bauer disc diffusion method ([Alkhaldi et al., 2019]; [Al-Wahaibi et al., 2021b]; [Manso et al., 2021]; [Ecevit et al., 2022]). […] Ciprofloxacin was used as a reference medication. […] Compounds 5f-k had promising antibacterial action against Gram-positive and Gram-negative bacteria, ranging from 75% to 115% of typical ciprofloxacin levels.
(§5) In addition, the synthesized compounds 5a-k were evaluated for their antifungal activity against A. flavus and C. albicans, with Fluconazole as a reference medication (Table 1). […]
Standard discs of ciprofloxacin (Antibacterial agent), Fluconazole (Antifungal agent) served as positive controls for antimicrobial activity but filter discs impregnated with 10 µl of solvent (distilled water, chloroform, DMSO) were used as a negative control. Blank paper disks (Schleicher & Schuell, Spain) with a diameter of 8.0 mm were impregnated 10µ of tested concentration of the stock solutions. When a filter paper disc impregnated with a tested chemical is placed on agar the chemical will diffuse from the disc into the agar. This diffusion will place the chemical in the agar only around the disc. The solubility of the chemical and its molecular size will determine the size of the area of chemical infiltration around the disc. If an organism is placed on the agar it will not grow in the area around the disc if it is susceptible to the chemical. This area of no growth around the disc is known as a “Zone of inhibition” or" Clear zone". For the disc diffusion, the zone diameters were measured with slipping calipers of the National Committee for Clinical Laboratory […]
as §3

Candida albicans = assay: Modified Kirby-Bauer disc diffusion (antifungal); type: cell-based; conditions: Candida albicans (fungi)
Description: as §4, §5, §2, §3

M. tuberculosis H37Rv = test system: M. tuberculosis H37Rv; design: method as in Abdu-Allah et al., 2017; conditions: ref Abdu-Allah et al., 2017; cited from earlier work
mycobacterium = test system: mycobacterium; design: method as in Abdu-Allah et al., 2017; conditions: nutrition starvation paradigm, 10 μg/mL; ref Abdu-Allah et al., 2017; cited from earlier work
B. subtilis = test system: B. subtilis; design: method as in Shi et al., 2007; conditions: ref Shi et al., 2007; cited from earlier work
P. fluorescence = test system: P. fluorescence; design: method as in Shi et al., 2007; conditions: ref Shi et al., 2007; cited from earlier work
E. Coli = test system: E. Coli; design: method as in Shi et al., 2007; conditions: ref Shi et al., 2007; cited from earlier work
[4] = test system: Gram-positive and Gram-negative bacteria; assay: Disc diffusion, activity relative to ciprofloxacin over the bacterial panel; type: cell-based; conditions: Gram-negative strains
Description: as §1
incubated at 35-37 °C for 24-48 hours and yeast as Candida albicans (ATCC 7102) incubated at 30 °C for 24-48 hours and, then the diameters of the inhibition zones were measured in millimeters. Standard discs of ciprofloxacin (Antibacterial agent), Fluconazole (Antifungal agent) served as positive controls for antimicrobial activity but filter discs impregnated with 10 µl of solvent (distilled water, chloroform, DMSO) were used as a negative control. Blank paper disks (Schleicher & Schuell, Spain) with a diameter of 8.0 mm were impregnated 10µ of tested concentration of the stock solutions. When a filter paper disc impregnated with a tested chemical is placed on agar the chemical will diffuse from the disc into the agar. This diffusion will place the chemical in the agar only around the disc. […] For the disc diffusion, the zone diameters were measured with slipping calipers of the National Committee for Clinical Laboratory […]

[5] = test system: E. coli b-Ketoacyl-acyl carrier protein synthase III (ecKAS III); design: method as in Cheng et al., 2010; conditions: ref Cheng et al., 2010; cited from earlier work
[6] = test system: DNA methyltransferases (DNMTs); design: method as in Leroy et al., 2019; conditions: ref Leroy et al., 2019; cited from earlier work
[7] = molecular target: S. aureus topoisomerase IV; conditions: read-out: IC50 S. aureus topoisomerase IV; internal standard value stated in the supplementary method; cited from earlier work
Bacillus subtilis [8] = assay: MIC, twofold serial dilution, 96-well microtiter plate; type: cell-based; conditions: Bacillus subtilis (G+); read-out: Minimum inhibitory concentration (MIC)
Description: (§6) The antibacterial activity of compounds 5f, 5h, 5i, and 5k were evaluated using a twofold serial dilution method ([Parasa et al., 2011]), with ciprofloxacin as the reference compound. The MIC values for certain compounds were obtained through dose-response experiments. The stated values are based on a minimum of two independent experiments, with three replicates per concentration in each experiment. The experimental details can be found in Appendix A (Supplementary Material). […]
(§7) 4.2.2. Minimum inhibitory concentration assay
(§8) In 96-well microtiter plates and […] of fresh bacterial culture of a single McFarland unit overnight, a double serial dilution of each compound […] in sterile standard saline were prepared to every single source well. Ciprofloxacin antibiotic (5 mg / mL - 1) and normal saline were included as standard reference in each assay. The plates were incubated at 37 0C overnight. As an indicator of bacterial growth, […] of p-iodonitrotetrazolium violet (INT) was added to each well and incubated at 37 0C for 30 […]
(§9) min. MIC values are recorded as the lowest concentration of the extract that completely inhibited bacterial growth that is clear well. The colorless tetrazolidium salt acts as an electron accepter and is reduced to a red colored formazan product by biological activity organisms. Where bacterial growth was inhibited, the solution in the well remained clear after incubation with INT. […]
(§10) SybrGOLD in T10 buffer (10 mM Tris HCl with pH 8.0 and 1 mM EDTA) was added. […]

Escherichia Coli [9] = assay: as above; type: cell-based; conditions: Escherichia coli (G−); read-out: Minimum inhibitory concentration (MIC)
Description: as §6, §7, §8, §9, §10

Pseudomonas aeruginosa [10] = assay: as above; type: cell-based; conditions: Pseudomonas aeruginosa (G−); read-out: Minimum inhibitory concentration (MIC)
Description: as §6, §7, §8, §9, §10

Staphylococcus aureus = assay: as above; type: cell-based; conditions: Staphylococcus aureus (G+); read-out: Minimum inhibitory concentration (MIC)
Description: as §6, §7, §8, §9, §10

Compound: N'-((E)-2-Chlorobenzylidene)-4-(4-(2-((Z)-2-chlorobenzylidene)hydrazine-1-carbonyl)-3-hydroxybenzyl)-2-hydroxybenzohydrazide [Compound 5e]
Inhibition zone diameter (Bacillus subtilis [1]): 27 mm/mg Sample
Inhibition zone diameter (Escherichia Coli [2]): 28 mm/mg Sample
Inhibition zone diameter (Pseudomonas aeruginosa [3]): 28 mm/mg Sample
Inhibition zone diameter (Staph. aureus): 30 mm/mg Sample
Inhibition zone diameter (Aspergillus flavus): 0.0 mm/mg Sample
Inhibition zone diameter (Candida albicans): 12 mm/mg Sample

Compound: N'-((E)-4-Chlorobenzylidene)-4-(4-(2-((Z)-4-chlorobenzylidene)hydrazine-1-carbonyl)-3-hydroxybenzyl)-2-hydroxybenzohydrazide [Compound 5b]
Inhibition zone diameter (Bacillus subtilis [1]): 26 mm/mg Sample
Inhibition zone diameter (Escherichia Coli [2]): 26 mm/mg Sample
Inhibition zone diameter (Pseudomonas aeruginosa [3]): 26 mm/mg Sample
Inhibition zone diameter (Staph. aureus): 27 mm/mg Sample
Inhibition zone diameter (Aspergillus flavus): 0.0 mm/mg Sample
Inhibition zone diameter (Candida albicans): 7 mm/mg Sample

Compound: O=C(N/N=C1\C(=O)N(Cc2ccc(Cl)cc2)c2ccccc21)c1cc(-n2cc(-c3ccccc3)nn2)ccc1O [III]
MIC (M. tuberculosis H37Rv): 0.39 µg/mL (≈ 0.71 µM)
reduction of bacterial count (mycobacterium): 2.4 logs

Compound: OC(Cn1cncn1)(Cn1cncn1)c1ccc(F)cc1F [Fluconazole, reference compound]
Inhibition zone diameter (Aspergillus flavus): 40 mm/mg Sample
Inhibition zone diameter (Candida albicans): 40 mm/mg Sample

Compound: NC[C@H]1O[C@H](O[C@H]2[C@H](O)[C@@H](O[C@H]3O[C@H](CO)[C@@H](O)[C@H](N)[C@H]3O)[C@H](N)C[C@@H]2N)[C@H](O)[C@@H](O)[C@@H]1O [Kanamycin]
MIC (B. subtilis): 0.39 µg/mL (≈ 0.805 µM)
MIC (P. fluorescence): 3.9 µg/mL (≈ 8.05 µM)
MIC (E. Coli): 3.9 µg/mL (≈ 8.05 µM)

Compound: N'-((E)-4-Nitrobenzylidene)-4-(4-(2-((Z)-4-nitrobenzylidene)hydrazine-1-carbonyl)-3-hydroxybenzyl)-2-hydroxybenzohydrazide [Compound 5c]
Inhibition zone diameter (Bacillus subtilis [1]): 26 mm/mg Sample
Inhibition zone diameter (Escherichia Coli [2]): 27 mm/mg Sample
Inhibition zone diameter (Pseudomonas aeruginosa [3]): 25 mm/mg Sample
Inhibition zone diameter (Staph. aureus): 27 mm/mg Sample
Inhibition zone diameter (Aspergillus flavus): 0.0 mm/mg Sample
Inhibition zone diameter (Candida albicans): 11 mm/mg Sample

Compound: CC(C/N=C/c1cc(Cl)ccc1O)C/N=C/c1cc(Cl)ccc1O [II]
MIC (B. subtilis): 1.8 µg/mL (≈ 4.93 µM)
MIC (P. fluorescence): 3.6 µg/mL (≈ 9.86 µM)
MIC (E. Coli): 4.9 µg/mL (≈ 13.4 µM)

Compound: N'-((E)-3-Chlorobenzylidene)-4-(4-(2-((Z)-3-chlorobenzylidene)hydrazine-1-carbonyl)-3-hydroxybenzyl)-2-hydroxybenzohydrazide [Compound 5g]
Inhibition zone diameter (Bacillus subtilis [1]): 33 mm/mg Sample
Inhibition zone diameter (Escherichia Coli [2]): 30 mm/mg Sample
Inhibition zone diameter (Pseudomonas aeruginosa [3]): 30 mm/mg Sample
activity compared to ciprofloxacin (Staph. aureus; S. aureus): 88%
Inhibition zone diameter (Staph. aureus): 35 mm/mg Sample
Inhibition zone diameter (Aspergillus flavus): 0.0 mm/mg Sample
Inhibition zone diameter (Candida albicans): 0.0 mm/mg Sample
activity of ciprofloxacin [4]: 75%

Compound: CC(CNC(=O)c1ccccc1O)/N=C/c1cc(Cl)cc(Cl)c1O (centres unmarked) [IV]
inhibitory activity against ecKAS III [5]: potent inhibitory activity

Compound: O=C(O)c1cc(Cc2ccc(O)c(C(=O)O)c2)ccc1O [NSC 14778, disalicylic acid methylene]
inhibitory activity on DNMTs [6]: within the micromolar range

Compound: N'-((E)-4-Methoxybenzylidene)-4-(4-(2-((Z)-4-methoxybenzylidene)hydrazine-1-carbonyl)-3-hydroxybenzyl)-2-hydroxybenzohydrazide [Compound 5j]
Inhibition zone diameter (Bacillus subtilis [1]): 31 mm/mg Sample
Inhibition zone diameter (Escherichia Coli [2]): 30 mm/mg Sample
Inhibition zone diameter (Pseudomonas aeruginosa [3]): 30 mm/mg Sample
Inhibition zone diameter (Staph. aureus): 33 mm/mg Sample
Inhibition zone diameter (Aspergillus flavus): 0.0 mm/mg Sample
Inhibition zone diameter (Candida albicans): 0.0 mm/mg Sample

Compound: N'-((E)-Benzylidene)-4-(4-(2-((Z)-benzylidene)hydrazine-1-carbonyl)-3-hydroxy benzyl)-2-hydroxybenzohydrazide [Compound 5a]
Inhibition zone diameter (Bacillus subtilis [1]): 21 mm/mg Sample
Inhibition zone diameter (Escherichia Coli [2]): 24 mm/mg Sample
Inhibition zone diameter (Pseudomonas aeruginosa [3]): 21 mm/mg Sample
Inhibition zone diameter (Staph. aureus): 25 mm/mg Sample
Inhibition zone diameter (Aspergillus flavus): 0.0 mm/mg Sample
Inhibition zone diameter (Candida albicans): 0.0 mm/mg Sample

Compound: CO[C@@H]1[C@@H](OC(N)=O)[C@@H](O)[C@H](Oc2ccc3c(O)c(NC(=O)c4ccc(O)c(CC=C(C)C)c4)c(=O)oc3c2C)OC1(C)C [Novobiocin]
IC50 [7]: 26.7 µM

MIC (Bacillus subtilis [8]): 0.01 µg/mL (≈ 0.0302 µM)
MIC (Escherichia Coli [9]): 0.06 µg/mL (≈ 0.181 µM)
MIC (Pseudomonas aeruginosa [10]): 0.06 µg/mL (≈ 0.181 µM)
MIC (Staphylococcus aureus): 0.03 µg/mL (≈ 0.0905 µM)
Compound: O=C(O)c1cn(C2CC2)c2cc(N3CCNCC3)c(F)cc2c1=O [Ciprofloxacin, reference compound]
Inhibition zone diameter (Bacillus subtilis [1]): 40 mm/mg Sample
Inhibition zone diameter (Escherichia Coli [2]): 40 mm/mg Sample
Inhibition zone diameter (Pseudomonas aeruginosa [3]): 40 mm/mg Sample
Inhibition zone diameter (Staph. aureus): 40 mm/mg Sample

Compound: N'-((E)-4-Bromobenzylidene)-4-(4-(2-((Z)-4-bromobenzylidene)hydrazine-1-carbonyl)-3-hydroxybenzyl)-2-hydroxybenzohydrazide [Compound 5d]
Inhibition zone diameter (Bacillus subtilis [1]): 28 mm/mg Sample
Inhibition zone diameter (Escherichia Coli [2]): 30 mm/mg Sample
Inhibition zone diameter (Pseudomonas aeruginosa [3]): 26 mm/mg Sample
Inhibition zone diameter (Staph. aureus): 31 mm/mg Sample
Inhibition zone diameter (Aspergillus flavus): 0.0 mm/mg Sample
Inhibition zone diameter (Candida albicans): 10 mm/mg Sample
